According to US20230293628A1, “MEANS AND METHODS FOR TREATING BACTERIAL INFECTIONS” (priority 2016, published 2023):
In brackets after ≈: the same amount, converted by molar mass. Like-named read-outs stand apart in the source and are kept apart here. Where no end group is shown, it is not given here.

Key:
[1] = test system: Escherichia coli ESBL (CUN E20)
[2] = test system: open wound with wound infections (Staphylococcus aureus, Parvimonas micra, β-hemolysing Streptococcus, Pseudomonas aeruginosa); experiment: Healing attempt, infected open wound of a patient, topical salve; format: in vivo; details: for Effect on wound: topical
From the text: A patient had—due to a cured tumor in the back—an open wound (see picture at t=0). […] Therefore, a conservative wound treatment was initiated. The wound's localization required the involvement of an ambulant nursing service who took over the daily care. Nevertheless, in sporadic intervals, wound infections occurred which inhibited the healing process. […] Over 6 years, all therapeutical approaches with different antibiotics and topically applied salve formulations failed. In November 2014 the patient was informed about the possibility of a, healing attempt′, to which they agreed. […] This therapeutically effect can be explained only from the use of the Aspidasept® salve, since all other parameters were not changed. The wound is now completely closed.

[3] = test system: M. tuberculosis-induced TNF formation of human peripheral blood mononuclear cells; experiment: M. tuberculosis supernatant-induced TNFα formation in human mononuclear cells (ELISA); format: cell-based; details: for Inhibition of M. tuberculosis-induced TNF formation (in words): FIG. 5
[4] = test system: monocyte-derived dendritic cells (MoDCs); experiment: LPS-stimulated monocyte-derived dendritic cells: maturation, migration, IL-6; format: cell-based
From the text: In monocyte-derived dendritic cells (MoDCs), Pep19-2.5 inhibited LPS-mediated upregulation of the maturation marker CD83 and the co-stimulatory molecule CD80 at a peptide:LPS weight ratio of 1000:1.
(§1) The potential of Peptide 19-2.5 and the structurally related compound Peptide 19-4LF has been investigated for their therapeutic application in bacterial skin infections. Primary human keratinocytes responded to TLR2 (FSL-1) but not TLR4 (LPS) activation by increased IL-8 production which was determined with ELISA. […] To detect phosphorylation of the intracellular proteins Western Blot was performed. Gene expression was evaluated by quantitative real-time PCR. […] In addition to acute inflammation, bacterial infections often result in impaired wound healing. Since re-epithelialization is a critical step in wound repair, we tested whether Peptide 19-2.5 affects keratinocyte migration.

[5] = test system: TLR2/6-activated keratinocytes; experiment: FSL-1 (TLR2/6)-activated keratinocytes: IL-8 ELISA, Western Blot, real-time PCR; format: cell-based, human; details: FSL-1 stimulation, 10:1 weight ratio
Procedure: Thus, the effect of Pep19-2.5 and Pep19-4LF on the toxin (pathogenicity factor) FSL-1 (fibroblast-stimulating lipopeptide), a TLR-2/6 activating compound, was checked.
as §1

keratinocyte migration = experiment: Scratch assay, keratinocyte migration; format: cell-based
Procedure: as §1

[6] = test system: Pseudomonas aeruginosa biofilm; experiment: Inactivation of biofilm from Pseudomonas aeruginosa with GFP-labelled bacteria; format: cell-based; details: short-time treatment (1 h), FIG. 2
Procedure: FIG. 2: Inactivation of a biofilm from Pseudomonas aeruginosa with GFP-labelled bacteria (GFP: Green-Fluorescent Protein). Living bacteria: white, inactivated bacteria: dark.
The micrographics shown that only a small fraction of the surface was covered by live bacteria forming a biofilm after 1 h (B) compared with the untreated one (A).

[7] = test system: Pseudomonas aeruginosa PS4; experiment: CDC Biofilm Reactor, inhibition of biofilm formation; format: cell-based; details: with and without levofloxacin, 24 hours treatment, FIG. 8
Procedure: The data shown in FIG. 8 were obtained in experiments carried out using the Center for Disease Control (CDC) Biofilm Reactor (CBR). In this case, clinical strain Pseudomonas aeruginosa PS4 was incubated in TSB under continuous shaking for 24 hours, followed by additional 24 hours growth with a flow of diluted TSB. Samples received treatments during another 24 hours dissolved at Phosphate Buffer at 37° C. Biofilms were scraped and serially diluted prior to plating and counting. For confocal microscopy, Biofilms were stained using Live/Death BacLight (Life technologies, Carlsbad, California, USA).

Molecule | MIC ([1]; individual agents, Mueller-Hinton medium) [µg/mL] | Effect on wound ([2]; 0.1% in salve (DAC-base cream)) | Reduction of the diameter of the wound ([2]; 1% in salve, after 2 months) [%] | Wound healing ([2]; 1% in salve, after 6 months) | Effect on wound ([2]; 1% in salve) | Inhibition of TNFα formation ([3]; 10 μg/ml peptide) | Inhibition of M. tuberculosis-induced TNF formation (in words) [3] | Inhibition of M. tuberculosis-induced TNF formation (in words) ([3]; listed as Pep19-2.5) | LPS-induced migration of MoDCs and CCR7 gene expression ([4]; FIG. 6) | LPS-mediated upregulation of maturation marker CD83 and co-stimulatory molecule CD80 ([4]; peptide:LPS weight ratio of 1000:1) | IL-8 release / IL-8 inducing activity of FSL-1 [5] | Concentration promoting cell migration and accelerating artificial wound closure (as low as) (keratinocyte migration) [ng/mL] | Potency in promoting cell migration relative to TGF-β (keratinocyte migration) | MIC ([1]; ESBL (CUN E20)) [µg/mL] | Inactivation of biofilm bacteria [6] | Inhibition of biofilm formation [7]
CO/N=C(\C(=O)N[C@@H]1C(=O)N2C(C(=O)O)=C(CSc3nc(=O)c(O)nn3C)CS[C@H]12)c1csc(N)n1 [Ceftriaxon, Ceftriaxone, reference compound] | 16 (≈ 28.9 µM) | – | – | – | – | – | – | – | – | – | – | – | – | – | – | –
N=C(N)NCCC[C@H](NC(=O)[C@H](Cc1ccc(O)cc1)NC(=O)[C@H](CCCCN)NC(=O)[C@H](CCCCN)NC(=O)[C@H](CS)NC(=O)CN)C(=O)N[C@@H](CCCNC(=N)N)C(=O)N[C@@H](Cc1ccccc1)C(=O)N[C@@H](CCCNC(=N)N)C(=O)N[C@@H](Cc1c[nH]c2ccccc12)C(=O)N[C@@H](CCCCN)C(=O)N[C@@H](Cc1ccccc1)C(=O)N[C@@H](CCCCN)C(=O)NCC(=O)N[C@@H](CCCCN)C(=O)N[C@@H](Cc1ccccc1)C(=O)N[C@@H](Cc1c[nH]c2ccccc12)C(=O)N[C@@H](Cc1ccccc1)C(=O)N[C@@H](Cc1c[nH]c2ccccc12)C(=O)NCC(=O)O [Peptide 19-2.5] | – | no effect | 50 | completely healed | significant effect | more than 50% | Does dependent inhibition | strongest anti-TNFα activity | completely blocked | inhibited | reduce IL-8 release | 1 | equipotent to TGF-β | 128 (≈ 47.2 µM) | – | –
GKKYRRFRWKFKGKLFLFG [Peptide 19-4LF, GKKYRRFRWKFKGKLFLFG] | – | – | – | – | – | – | – | – | – | – | reduce IL-8 release | – | – | 16 | most bacteria are inactivated | Inhibition of biofilm formation
